Results as given in the NIST ThermoML archive (doi:10.1016/j.tca.2011.09.016).
Numbers after ± are expanded uncertainties.

Settings: Crystal 2; AC calorimetry

For `O=P([O-])(O)P(=O)([O-])O.[NH4+].[NH4+]` [diammonium hypodiphosphate], which Triple point temperature is on record?
The Triple point temperature was 177.5 ± 0.1 K.
